Consider 9 compounds from patent US8586033B2, “Integrin αIIbβ3 specific antibodies and peptides” (The Scripps Research Institute, priority 2003, dated 2013).

“Also recorded” adds a separate entry of the source. Where a SMILES comes first, the peptide text is derived from it. Bridges are numbered along the chain shown (N, C = ends). [ ]: non-standard residue; d: D form. hArg = N=C(N)NCCCC[C@H](N)C(=O)O; Mpa = O=C(O)CCS

Series [1] deals with T1, interaction of human fibrinogen and human integrin αIIbβ3 (Homo sapiens, UniProt P05106+P08514).
T1 construct: purchased Enzyme Research Laboratories (South Bend, Ind.)
The series can be described thus: Fibrinogen binding inhibition assay (competitive ELISA). As to the method:
Wells of a Costar 3690 96-well plate were coated with 100 ng of integrin αIIbβ3 in 50 μl metal buffer at 4° C. overnight. The plate was washed twice with water and blocked with 160 μl of 3% (w/v) skim milk in TBS for 1 h at 37° C. […] The final concentrations were adjusted between 1.3×10^−8 M and 8.0×10^−7 M of Fabs and between 8.9×10^−8 M and 9.1×10^−5 M of synthetic peptides. After incubation for 2 h at 37° C. followed by ten times washing with water and five times washing with 0.05% Tween20 in TBS, 50 μl of 0.5 μg/ml streptavidine-HRP (Pierce) diluted in 3% (w/v) skim milk in TBS was added and incubated for 1 h at 37° C. After washing as above, 50 μl of ABTS substrate solution (Barbas, C. F., 3rd, Burton, D. R., Scott, J. K., and Silverman, G. J. (2001) Phage Display: A Laboratory Manual, Cold Spring Harbor Laboratory Press, Cold Spring Harbor, N.Y.) was added. This experiment was repeated three times at each concentration to get the mean value and standard deviation.
Background: ELISA stands for enzyme-linked immunosorbent assay.

Series [2] deals with human platelets. The series can be described thus: Platelet aggregation assay ex vivo (ADP-induced, lumi-aggregometer). It is filed as cell-based. The note with it: ADP 20 μM; for inhibition of platelet aggregation at 90 μM: peptide 90 μM. The protocol: Peripheral human blood was collected as described above. Platelet-rich plasma (PRP) was obtained from the collected peripheral blood by centrifugation at 135 g for 15 min. Subsequent centrifugation at 1,500 g for 15 min yielded platelet-poor plasma (PPP). By mixing PRP and PPP, conditioned plasma of 300,000-350,000 platelets per 1 μl of plasma was prepared. […] The platelet aggregation assay was done as described previously (Klinkhardt, U., Kirchmaier, C. M., Westrup, D., Breddin, H. K., Mahnel, R., Graff, J., Hild, M., and Harder, S. (2000) Differential in vitro effects of the platelet glycoprotein IIb/IIIa inhibitors abxicimab or SR121566A on platelet aggregation, fibrinogen binding and platelet secretory parameters. Thromb Res 97, 201-207) using a whole blood lumi-aggregometer (Chrono-log, Havertown, Pa.). The impedance of each sample was monitored until a stable baseline was established (<5 mV drift per minute). To induce platelet aggregation, 9 μl of an ADP solution was added to reach a final concentration of 20 μM. Increase in impedance across a pair of electrodes over time was transmitted through an interface to a personal computer for analysis (AGGRO/LINK, Chrono-log).

For another series, the target named is integrin αIIbβ3 (Homo sapiens, UniProt P05106+P08514). Nature of the series: Inhibition of binding of selected RAD antibodies to integrin by peptides.
Series [3] has as its system integrins αIIbβ3, αvβ3 and αMβ2. To be noted: cited from earlier work.
The conditions of series [4]: human, in vivo; cited from earlier work.
Another series deals with platelets. The note with it: aggregation induced at 5 μM ADP; read-out: previously reported EC50 of platelet aggregation inhibition; cited from earlier work.
The test system of the next series is HUVEC cells. Nature of the series: Flow cytometry, Fab binding to cells. It is filed as cell-based, human. The note with it: Fab 0.2 μM; HUVEC mainly express integrin αvβ3. As to the method: (§1) Peripheral blood was drawn from a healthy volunteer and collected in an ACD tube (Becton Dickinson, San Jose, Calif.). HUVEC were treated for 5 min with 0.05% (w/v) trypsin, 0.53 mM EDTA (Life Technologies), collected by centrifugation at 500 g for […], and resuspended in 1% (w/v) BSA in PBS (phosphate buffered saline). […] After incubation for 40 min at room temperature followed by washing twice with 1% (w/v) BSA in PBS, 10 μl of FITC conjugated anti-human IgG polyclonal antibodies (Sigma-Aldrich) diluted in 750 μl of 1% (w/v) BSA in PBS was added and incubated for 20 min at room temperature. After washing twice with 1% (w/v) BSA in PBS, flow cytometry was performed using a FACStar instrument from Becton Dickinson (San Jose, Calif.).
(In general: A flow cytometer gives signals particle by particle.)

Series [5] has as its system human platelets. The series can be described thus: Flow cytometry, Fab binding to cells. To be noted: Fab 0.2 μM, peripheral blood. It is filed as cell-based. As to the method: as §1

`CC(C)[C@H](N)C(=O)N[C@H](C(=O)N[C@H]1CSSC[C@@H](C(=O)O)NC(=O)[C@H](CCCNC(=N)N)NC(=O)[C@H](CCCNC(=N)N)NC(=O)[C@H](CC(=O)O)NC(=O)[C@H](C)NC(=O)[C@H](CCCNC(=N)N)NC1=O)C(C)C` (H-VVCRADRRC-OH; disulfide 3-9; N-terminus and C-terminus assumed): the “inhibition of the interaction between integrin αIIbβ3 and fibrinogen (in words)” value in series [1] is “inhibited; also recorded: strongly inhibited”. Also, in the series on human platelets [2], the “inhibition of platelet aggregation ex vivo (in words)” value is reported as “inhibited; also recorded: strongly inhibited” and the “inhibition of platelet aggregation at 90 μM” value (“inhibition … at 90 μM” below) is “completely inhibited”. Further, at integrin αIIbβ3, the “inhibition of the binding of the selected RAD antibodies to integrin αIIbβ3” value is reported as “inhibited”.
Take `CC(C)[C@H](N)C(=O)N[C@@H](Cc1c[nH]c2ccccc12)C(=O)N[C@H]1CSSC[C@@H](C(=O)O)NC(=O)[C@H](CCCNC(=N)N)NC(=O)[C@H](CCCNC(=N)N)NC(=O)[C@H](CC(=O)O)NC(=O)[C@H](C)NC(=O)[C@H](CCCNC(=N)N)NC1=O` (H-VWCRADRRC-OH; disulfide 3-9; N-terminus and C-terminus assumed): the “inhibition of the interaction between integrin αIIbβ3 and fibrinogen (in words)” value in series [1] was “inhibited; also recorded: strongly inhibited”. Also, in the series with human platelets [2], the “inhibition of platelet aggregation ex vivo (in words)” value is recorded as “inhibited; also recorded: strongly inhibited” and the “inhibition … at 90 μM” value is on record as “completely inhibited”. For the same compound, the “inhibition of platelet aggregation at 9 μM” value in the series with human platelets [2] (peptide 9 μM) is given as “the only peptide to inhibit platelet aggregation”. Besides, the “inhibition of the binding of the selected RAD antibodies to integrin αIIbβ3” value on integrin αIIbβ3 is given as “inhibited”.
Regarding “THSDARRRE (inversed RAD motif peptide) [control peptide with an inversed RAD motif, reference compound]”, the “inhibition of the interaction between integrin αIIbβ3 and fibrinogen (in words)” value in series [1] is listed as “did not inhibit”.
Take `N=C(N)NCCCC[C@@H]1NC(=O)CCSSC[C@@H](C(N)=O)NC(=O)[C@@H]2CCCN2C(=O)[C@H](Cc2c[nH]c3ccccc23)NC(=O)[C@H](CC(=O)O)NC(=O)CNC1=O` [eptifibatide] ([Mpa][hArg]GDWPC-NH2; disulfide 1-7): in series [3], the “reported integrin specificity / cross-reactivity” value was “αIIbβ3-specific”. Further, the “incidence of thrombocytopenia versus placebo” value in series [4] is “approximately the same”.
On to “THSRADRRE (listed as Homo sapiens) [linear nonapeptide derived from HCDR3 of clone RAD1]”, for which the “inhibition of the interaction between integrin αIIbβ3 and fibrinogen (in words)” value in series [1] was “did not inhibit and not”. Also, the “inhibition of platelet aggregation ex vivo (in words)” value in the series on human platelets [2] was “not”.
`CCCCS(=O)(=O)N[C@@H](Cc1ccc(OCCCCC2CCNCC2)cc1)C(=O)O` [tirofiban]: the “reported integrin specificity / cross-reactivity” value in series [3] is “αIIbβ3-specific”.
With “VVCDARRRC (inversed RAD motif peptide) [control peptide with an inversed RAD motif, reference compound]”, in series [1], the “inhibition of the interaction between integrin αIIbβ3 and fibrinogen (in words)” value is recorded as “did not inhibit”.
On to “Abciximab: chimeric Fab with mouse variable and human constant domains, integrin αIIbβ3 inhibitor”, for which the “reported integrin specificity / cross-reactivity” value in series [3] was “cross-react with integrin αvβ3 and αMβ2”. The EC50 with platelets is 34 nM; in the series with human platelets [2] (conditioned plasma, read-out: EC50, required concentration for 50% inhibition in a human platelet aggregation assay), 45 nM. Also, the “binding to HUVEC cells (flow cytometry)” value with HUVEC cells was “bound to both platelets and HUVEC cells”. The “occurrence of thrombocytopenia after the second administration” value in series [4] is 4%. Moreover, the “binding to human platelets (flow cytometry)” value in the series with human platelets [5] is “bound to both platelets and HUVEC cells”.
Turning to `CC(C)[C@H](N)C(=O)N[C@@H](Cc1c[nH]c2ccccc12)C(=O)N[C@H]1CSSC[C@@H](C(=O)O)NC(=O)[C@H](CCCNC(=N)N)NC(=O)[C@H](CCCCN)NC(=O)[C@H](CC(=O)O)NC(=O)[C@H](C)NC(=O)[C@H](CCCNC(=N)N)NC1=O` (H-VWCRADKRC-OH; disulfide 3-9; N-terminus and C-terminus assumed), the “inhibition of the interaction between integrin αIIbβ3 and fibrinogen (in words)” value in series [1] is given as “inhibited; also recorded: strongly inhibited”. In the series with human platelets [2], the “inhibition of platelet aggregation ex vivo (in words)” value was “inhibited; also recorded: strongly inhibited” and the “inhibition … at 90 μM” value was “completely inhibited”. The “inhibition of the binding of the selected RAD antibodies to integrin αIIbβ3” value at integrin αIIbβ3 was “inhibited”.
